In one data set the test system is K. pneumoniae ATCC 77326. Briefly: Broth microdilution MIC, K. pneumoniae. The data set is classed as cell-based, Klebsiella pneumonia. As to conditions: Klebsiella pneumoniae, ATCC77326; K. pneumoniae ATCC 77326; read-out: MIC. The method, then:
(§1) In vitro antibiotic susceptibilities were determined using the broth microdilution assay established by the Clinical and Laboratory Standards Institute ([Clinical and Laboratory Standards Institute, 2012]). Broth microdilution assays were carried out with 2 biological replicates, each in triplicate, Mueller–Hinton broth (MHB; BD Biosciences, Franklin Lakes, NJ, USA) with a total assay volume of 100 μL in 96-well plates (BD Biosciences, Franklin Lakes, NJ, USA). Two-fold serial dilutions of compounds were prepared at a range of 0.01– 64 μg/mL in 50 μL of MHB. The initial bacterial inoculum was adjusted to OD600 0.06, 50 μL was, added to the test compounds, and then incubated at 35°C for 18 h. Post incubation, OD600 was measured using a Vmax microplate reader (Molecular Devices, San Jose, CA), and the lowest concentration of test compound that suppressed bacterial growth was reported as the MIC. Broth culture from the MIC assay (10 μL) was plated on Mueller–Hinton agar (BD Biosciences, Franklin Lakes, NJ, USA), and colony-forming units (CFUs) were enumerated after overnight incubation at 37°C.
For orientation: Broth dilution looks for growth in wells or tubes with falling amounts of substance.

The subject of a further data set is E. faecium ATCC E007. The data set can be described thus: Broth microdilution MIC, E. faecium. The data set is classed as cell-based, Enterococcus faecium. As to conditions: Enterococcus faecium, ATCCE007; E. faecium ATCC E007; read-out: MIC. The protocol: as §1
In the next data set the test system is Enterobacter (EAE 2625). The data set can be described thus: Broth microdilution MIC, Enterobacter. The data set is classed as cell-based, Enterobacter spp. As to conditions: Enterobacter (EAE 2625); read-out: MIC. The method, then:
as §1

For another data set, the system named is A. baumannii 17978. Briefly: Broth microdilution MIC, A. baumannii. The data set is classed as cell-based, Acinetobacter baumannii. As to conditions: Acinetobacter baumannii; A. baumannii 17978; read-out: MIC. The protocol:
as §1

In data set [1] the test system is S. aureus MW2. Briefly: Broth microdilution MIC, S. aureus MW2. The data set is classed as cell-based, Staphylococcus aureus. Conditions: for MIC: S. aureus MW2 (MRSA), broth microdilution, 18 h. The method, then:
as §1

Another data set deals with P. aeruginosa PA14. Briefly: Broth microdilution MIC, P. aeruginosa. Conditions: Pseudomonas aeruginosa; P. aeruginosa PA14; read-out: MIC. The data set is classed as cell-based, Pseudomonas aeruginosa. The method, then: as §1
In a further data set the target is S. aureus TrxR (Staphylococcus aureus, UniProt P66011). Briefly: TrxR (TrxB) enzymatic assay, DTNB to TNB conversion. As to conditions: for TrxR enzymatic inhibitory activity (in words): DTNB to TNB conversion.
The test system of data set [2] is clinical isolates of S. aureus. Briefly: MIC against clinical isolates of S. aureus. The data set is classed as cell-based. Conditions: Staphylococcus aureus, read-out: MIC. The protocol:
Broth microdilution assays were carried out with 2 biological replicates, each in triplicate, Mueller–Hinton broth (MHB; BD Biosciences, Franklin Lakes, NJ, USA) with a total assay volume of 100 μL in 96-well plates (BD Biosciences, Franklin Lakes, NJ, USA). […] The initial bacterial inoculum was adjusted to OD600 0.06, 50 μL was, added to the test compounds, and then incubated at 35°C for 18 h. Post incubation, OD600 was measured using a Vmax microplate reader (Molecular Devices, San Jose, CA), and the lowest concentration of test compound that suppressed bacterial growth was reported as the MIC.
Isolates were tested as 2 biological replicates.

Data set [3] in a line: Compound solubility in PBS. The data set is classed as physicochemical. As to conditions: aqueous buffer, kinetic from dmso stock; PBS, 2 Hour; highest concentration with no detectable precipitate; read-out: Solubility Limit. The method, then: Compound solubility in PBS. Compound solubility was measured in PBS. Briefly, serial dilutions of test compounds were prepared in DMSO at 100x the final concentration. Test compound solutions were diluted 100-fold into PBS in a 96-well plate and mixed. After 2 h, the presence of precipitate was detected by measuring absorbance at 540 nm.

The subject of data set [4] is intracellular free thiols of S. aureus MW2. The data set can be described thus: Thiol depletion assay. The data set is classed as cell-based, Staphylococcus aureus. As to conditions: treated vs untreated cell lysate. The protocol:
S. aureus MW2 was treated for 15 min with the indicated (0.125, 0.25, 0.5, or 0.75 µg/mL) concentrations of auranofin, AU1, AU5, or ampicillin. After treatment bacteria were washed twice in PBS and then resuspended in 100 mM potassium phosphate, monobasic, pH 7.4, containing 1 mM ethylenediaminetetraacetic acid to promote lysis. Cells were incubated in the lysis solution for 30 min at 60°C and then vortexed briefly. The solution was centrifuged at 13,000 g for 10 min to collect cell debris. Lysate was collected and 50 μL was transferred to a 96-well plate. Thiols were quantified using the Fluorometric Thiol assay kit following the manufacturer’s instructions (Millipore Sigma, St. Louis, MO, USA). The fluorescence intensity was measured after a 30 min incubation time at λex = 490/λem = 535 nm using a Vmax plate reader.

The subject of data set [5] is S. aureus MW2. The data set can be described thus: Diamide assay (CFU reduction). Conditions: 3 h. The data set is classed as cell-based, Staphylococcus aureus. The method, then:
An overnight culture of S. aureus MW2 was inoculated in tryptic soy broth (TSB) media and grown with agitation. The cells were centrifuged, washed with PBS, and diluted to an OD600 0.4 (10^8 CFU/mL) in PBS. The cells were then treated with auranofin (0.5 µg/mL), AU1 (0.5 µg/mL), AU5 (0.5 µg/mL), and diamide (5 mM and 10 mM) alone or in combinations for 3 h at 37°C. The cells were then serially diluted and plated on tryptic soy agar (TSA) media and incubated at 37°C for 24 h. Colonies that grew on plates were enumerated to determine the effect of the drug and diamide on S. aureus.

Values after ≈ are worked out from the molar mass of the structure shown. Like-named read-outs stand apart in the source and are kept apart here.

Chain of S. aureus TrxR (P66011 whole entry): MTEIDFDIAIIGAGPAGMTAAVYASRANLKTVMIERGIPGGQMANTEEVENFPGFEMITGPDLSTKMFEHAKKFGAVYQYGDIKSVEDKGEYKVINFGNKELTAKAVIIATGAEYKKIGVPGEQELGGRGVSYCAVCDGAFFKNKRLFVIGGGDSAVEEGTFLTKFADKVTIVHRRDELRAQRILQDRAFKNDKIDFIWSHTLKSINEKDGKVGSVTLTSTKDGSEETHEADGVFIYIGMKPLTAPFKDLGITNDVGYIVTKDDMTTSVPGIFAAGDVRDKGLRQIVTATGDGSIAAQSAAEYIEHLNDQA
Procedure for S. aureus TrxR: TrxR specific inhibitory activity was evaluated using 40 μL of S. aureus TrxR enzyme (0.5 μg/μL) per 200 mL of the reaction mixture for 15 minutes, comparing auranofin to other sulfur-containing compounds (all tested at 10 μg/mL), including known anti-S. aureus compounds.
For the screening assay, diluted TrxR assay buffer (Cayman Chemical, Ann Arbor, MI) (100 μL) was mixed with the investigational compounds (20 μL) in a 96 well-plate format and combined with Sa-TrxB (40 μL; 0.5 μg/mL), DTNB (20 μL) and NADPH (20 μL). The reaction entailed combining NADPH and Sa-TrxB with DTNB, which was converted to TNB, producing a yellow color.

For orientation: MIC means the least concentration at which growth counts as inhibited. In the case of `CC(C)(C)c1ccc(S(=O)(=O)/C=C/C#N)cc1` [Bay11-7085], the MIC in the data set with K. pneumoniae ATCC 77326 was above 64 µg/mL; in the data set on E. faecium ATCC E007, 32 µg/mL (≈ 128 µM); with Enterobacter (EAE 2625), above 64 µg/mL; in the data set with A. baumannii 17978, 64 µg/mL (≈ 257 µM); in the data set on S. aureus MW2 [1] (Staphylococcus aureus, read-out: MIC), 4 µg/mL (≈ 16 µM); with P. aeruginosa PA14, above 64 µg/mL. Besides, the “OD420 in TrxR enzymatic assay” value at S. aureus TrxR (subscreen, after a 30 min incubation period, DMSO 0.483 ± 0.121) came out at 0.1094.
`CC(C)(C)c1ccc(S)cc1` [C1, 4-tert-butylbenzenethiol]: the minimum inhibitory concentration (MIC) in the data set with S. aureus MW2 [1] is above 128 µg/mL.
The same measure, in the same setting: the same measure for `CC(C)(C)c1ccc(S(=O)O)cc1` [C2, 4-tert-butylbenzenesulfinic acid]: above 128 µg/mL; for `CCP(=O)(CC)CC` [C3, triethylphosphine oxide]: above 128 µg/mL; for `O=P(c1ccccc1)(c1ccccc1)c1ccccc1` [C4, Triphenylphosphine oxide]: above 128 µg/mL.
As to `CC(C)(C)c1ccc(S(=O)(=O)/C=C/C(N)=O)cc1` [D22], the “anti-S. aureus activity (in words)” value in the data set on S. aureus MW2 [1] was “not effective S. aureus inhibitors”. Moreover, the “TrxR enzymatic inhibitory activity (in words)” value on S. aureus TrxR is reported as “demonstrated inhibitory activity but required higher concentrations than AU1, AU5, or auranofin”.
On the same counts, the results for `COC(=O)/C=C/S(=O)(=O)c1ccc(C(C)(C)C)cc1` [D25] are “not effective S. aureus inhibitors” and “did not inhibit”.
Turning to `CC(C)(C)c1ccc(S(=O)(=O)/C=C/CO)cc1` [D26], the “anti-S. aureus activity (in words)” value in the data set with S. aureus MW2 [1] was “not effective S. aureus inhibitors”. Also, the “TrxR enzymatic inhibitory activity (in words)” value at S. aureus TrxR is recorded as “demonstrated inhibitory activity but required higher concentrations than AU1, AU5, or auranofin”.
For `Cc1onc(-c2ccccc2)c1C(=O)N[C@@H]1C(=O)N2[C@@H]1SC(C)(C)[C@@H]2C(=O)O` [Oxacillin], the MIC in data set [2] (isolate BFSA12) was 0.5 µg/mL (≈ 1.25 µM); in [2] (isolate BFSA13), 1 µg/mL (≈ 2.49 µM); in data set [2] (isolate BFSA15), 0.25 µg/mL (≈ 0.623 µM); in data set [2] (isolate BFSA16), 0.25 µg/mL (≈ 0.623 µM); in [2] (isolate BFSA17), 0.125 µg/mL (≈ 0.311 µM); in data set [2] (isolate BFSA18), 0.5 µg/mL (≈ 1.25 µM). In addition, the minimum inhibitory concentration (MIC) is 0.5 µg/mL (≈ 1.25 µM) in data set [2] (isolate BFSA19); 0.5 µg/mL (≈ 1.25 µM) in [2] (isolate BFSA20); 0.5 µg/mL (≈ 1.25 µM) in data set [2] (isolate BFSA21); 1 µg/mL (≈ 2.49 µM) in data set [2] (isolate BFSA22); 0.5 µg/mL (≈ 1.25 µM) in data set [2] (isolate BFSA24); 0.25 µg/mL (≈ 0.623 µM) in data set [2] (isolate BFSA26). Also, the minimum inhibitory concentration (MIC) in data set [2] (isolate BFSA29), in [2] (isolate BFSA30), in data set [2] (isolate BFSA31), in [2] (isolate BFSA32), in data set [2] (isolate BFSA33) and in data set [2] (isolate BFSA34) was above 8 µg/mL each time. The minimum inhibitory concentration (MIC) was above 8 µg/mL in data set [2] (isolate BFSA35); above 8 µg/mL in data set [2] (isolate BFSA36); 0.25 µg/mL (≈ 0.623 µM) in data set [2] (isolate BFSA37); 0.25 µg/mL (≈ 0.623 µM) in data set [2] (isolate BFSA38); 0.25 µg/mL (≈ 0.623 µM) in data set [2] (isolate BFSA39); above 8 µg/mL in [2] (isolate BFSA148). Also, the MIC in data set [2] (isolate BFSA149), in data set [2] (isolate BFSA150), in data set [2] (isolate BFSA151), in [2] (isolate BFSA152), in [2] (isolate BFSA153) and in data set [2] (isolate BFSA155) was above 8 µg/mL throughout.
In general, solubility refers to how much of the substance goes into solution per volume. As to `COC(=O)[C@H]1[C@H]2C[C@@H]3c4[nH]c5cc(OC)ccc5c4CCN3C[C@H]2C[C@@H](OC(=O)c2cc(OC)c(OC)c(OC)c2)[C@@H]1OC` [Reserpine], the solubility at 2 h in [3] was 7.81 µM (≈ 4.75 µg/mL).
Regarding `CC1(C)S[C@@H]2[C@H](NC(=O)[C@H](N)c3ccccc3)C(=O)N2[C@H]1C(=O)O` [ampicillin], in data set [4], the “impact on free thiols (in words)” value is “no impact”.
Take `CN(C)C(=O)/N=N/C(=O)N(C)C` [diamide]: the “log CFU reduction” value is 1.5 log CFU with S. aureus MW2 [5] (diamide alone 5 mM) and “up to 2.6 log CFU” with S. aureus MW2 [5] (diamide alone 10 mM).

The record behind these values is publication PMC11732138, “Gold complex compounds that inhibit drug-resistant Staphylococcus aureus by targeting thioredoxin reductase” (Frontiers in Antibiotics, 2023).
